A value given as a limit tells only on which side of the number the result lay.

From patent US10975056B2 (GlaxoSmithKline Intellectual Property Development Limited, priority 2016, dated 2021) come the findings set out here.

One assay addresses DNMT1 (Homo sapiens, UniProt P26358). The assay can be described thus: DNMT1 biochemical activity, breaklight assay and/or SPA assay. The conditions noted are these: binned activity in either the breaklight or the SPA assay; for IC50: read-out: DNMT1 BioChemical (pIC50 category) (converted). How it is done: DNMT1 breaklight in vitro assays were conducted in a total volume of 50 μl in a standard 384 well format, using black non-binding surface microplates (Corning 3575). […] Negative control wells used 5 μl of DNMT1 and 5 μl of oligonucleotide but 0 μM SAM. All reagents were made up in 1× assay buffer (20 mM Tris pH 6.8, 25 mM NaCl, 0.5 mM MgCl2, 0.01% Triton X100 and 1 mM DTT). The reaction was incubated at 26° C. for 45 min and then stopped with the addition of 40 μl detection reagent. Detection reagent, made up in 1× Gla assay buffer (20 mM Tris pH 8.0, 80 mM NaCl, 0.75 mM MgCl2, 0.01% Triton X100 and 1 mM DTT) has a final concentration of 100 μM SAH (Sigma #A9384) and 0.0008 units/μl Gla1 restriction endonuclease (Sibenzyme #E494). Following addition of the detection reagent the plate was incubated in the dark at room temperature for 5 hr. Fluorescence intensity was then measured on the PHERAstar FS (BMG Labtech) at Ex 485 nm and Em 520 nm, with a gain of 400 and an integration time of 100 ms.
Biochemical activity of DNMT1 analyzed using SPA technology. Plates (Griener 784075) were pre-stamped with 100 nL/well of compound (11-point, 3-fold serial dilution). […] Low control wells contained 5 μL of buffer instead of enzyme. Following a 40 minute incubation, the reaction was quenched upon the addition of 10 μL of stop mixture containing 1 mM SAM (Sigma A7007) and 2 mg/mL PEI beads (Perkin Elmer RPNQ0098). Plates were sealed, centrifuged for 1 min and then read on a Viewlux (Perkin Elmer) using the 613 nm emission filter/300 s read time following a 30 minute dark adapt. Assay conditions prior to quench consisted of 40 nM DNMT1 (601-1600, produced internally), 100 nM 3H-SAM (American Radiolabeled Chemicals ART 0288), 900 nM SAM (New England BioLabs B9003S) and 200 nM hemi methylated DNA oligonucleotide (synthesized at Integrated DNA Technologies, 5′-[…]-3′) in 50 mM HEPES (pH 8.0), 2 mM MgCl2, 1 mM DTT, 0.01% NP-40 and 0.01% BSA.
Comments • 1. […] Where a field is empty, the compound was not tested in that assay.

The test system of assay [1] is erythroid progenitor cells (EPCs). The assay can be described thus: Fetal hemoglobin (HbF) ELISA in day 7 erythroid progenitor cells. In kind it is cell-based, human. The conditions noted are these: Homo sapiens, Erythroid progenitor cell, HbF ELISA, day 7 EPCs, 5 days; read-out: EPC ELISA (pEC50 category) (converted). The method, then:
Day 7 EPCs were cultured in duplicate plates with serially diluted Compound A for 5 days at 37° C. Wells were then analyzed for either induction of fetal hemoglobin (HbF,HbF ELISA) or cell growth (Cell Titer-Glo). In both cases, signal was normalized to vehicle-control treated cells.
Culture, Expansion, and Characterization of Day 7 Erythroid Progenitor Cells (EPC)s
All donors provided written informed consent for use of their samples, and the collection and use of the samples received institutional review board approval. All cryopreserved human bone marrow CD34+ cells used here were obtained from AlICells (Emeryville, Calif.) and were generally from different donors. The CD34+ cells were cultured to generate EPCs at day 7. Briefly, 1 million cells were cultured in 5% CO2, 5% O2 at 37° C. in H3000 Stemspan media (StemCell Technologies Vancouver, BC, Canada) supplemented with 2 mM L-glutamine, 40 μg/mL human low-density lipoproteins (StemCell Technologies), 10 ng/mL recombinant human (rh) interleukin IL-3 (R&D Systems, Minneapolis, Minn.), 100 ng/mL rh stem cell factor (R&D Systems), and 0.5 U/mL rh erythropoietin (Invitrogen, Grand Island, N.Y.). Cells were split and refed on day 4 with complete culture media described above and harvested on day 7 for evaluation of erythroid marker expression and assessment of γ-globin induction. Day 7 EPCs were then frozen in liquid nitrogen at 5 to 10 million cells/mL in 95% fetal bovine serum (FBS; Invitrogen) with 5% DMSO for subsequent use.
At the time of compound treatment, frozen day 7 EPCs prepared as described above were thawed, washed once and re-suspended in complete culture media as described above with the exception of an increase of rhEPO to 3 U/mL. Cells were counted and diluted to […] for plating into assay plates. Cells were then dispensed, at 30 μL per well with Multidrop™ Combi Reagent Dispenser (Thermo Scientific), into 384-well cell culture plates into which test compounds were pre-dispensed at 100 nL/well. Black Clear Bottom (Greiner Bio-One; 781090) and White (Greiner Bio-One; 781080) plates were used for ELISA and Cell Titer-Glo assays, respectively. The final cell density in the assays is 1,000 cells per well, with final compound concentrations between 33 nM (highest) and […] (lowest) for the 22-points serial dilution.
Fetal Hemoglobin (HbF) ELISA
Coating anti-HbF Ab (Bethyl Lab; cat. A80-136A) was diluted by 100-fold in the coating buffer (0.05 M carbonate-bicarbonate, pH 9.6), and then 20 μL/well was added to a 384-well MaxiSorp ELISA plate (Thermo Fisher; cat. 464718). After 1 hour incubation at room temperature, the plates were washed twice with ELISA washing buffer (50 mM Tris, 0.05% Tween 20, pH 8.0) with an EL406 plate washer (BioTek, Winooski, Vt.). Then, 40 μL/well of blocking buffer consisting of 50 mM Tris and 1% BSA (pH 8.0) was added to the plate and stored at 4° C. with cover sheet overnight, or until time of the assay. The coated ELISA plates were stable for up to 30 days at 4° C. On the day of assay, the plates were washed twice with ELISA washing buffer prior to addition of cell lysate.
After 5 days at 37° C. with 5% CO2 cell culture plates for ELISA assay were put into −80° C. freezer for a minimum of 2 hours. After thawing at room temperature, 30 μL of cell lysis buffer (Invitrogen; cat. FNN0011, supplemented with 1× protease inhibitor) was added to each well and the resulting cell lysate was mixed eight times with a Cybi-Well (Jena, Germany) pipettor. Following the mixing procedure, 20 μL/well of lysate was transferred to the coated ELISA plates described above followed by a 1 hour incubation at room temperature. The ELISA assay plates were washed three times with ELISA wash buffer. 20 μL per well of 1:75,000 to 100,000 diluted horseradish peroxidase (HRP) conjugate detection antiHbF Ab (Bethyl Labs; cat. A80-136P, diluted in 50 mM Tris [pH 8.0], 1% BSA, 0.05% Tween-20) was then added. […]
Background: In an ELISA, binding on a coated surface is turned into a signal by an enzyme label.

Chain of DNMT1 (P26358 whole entry, looked up): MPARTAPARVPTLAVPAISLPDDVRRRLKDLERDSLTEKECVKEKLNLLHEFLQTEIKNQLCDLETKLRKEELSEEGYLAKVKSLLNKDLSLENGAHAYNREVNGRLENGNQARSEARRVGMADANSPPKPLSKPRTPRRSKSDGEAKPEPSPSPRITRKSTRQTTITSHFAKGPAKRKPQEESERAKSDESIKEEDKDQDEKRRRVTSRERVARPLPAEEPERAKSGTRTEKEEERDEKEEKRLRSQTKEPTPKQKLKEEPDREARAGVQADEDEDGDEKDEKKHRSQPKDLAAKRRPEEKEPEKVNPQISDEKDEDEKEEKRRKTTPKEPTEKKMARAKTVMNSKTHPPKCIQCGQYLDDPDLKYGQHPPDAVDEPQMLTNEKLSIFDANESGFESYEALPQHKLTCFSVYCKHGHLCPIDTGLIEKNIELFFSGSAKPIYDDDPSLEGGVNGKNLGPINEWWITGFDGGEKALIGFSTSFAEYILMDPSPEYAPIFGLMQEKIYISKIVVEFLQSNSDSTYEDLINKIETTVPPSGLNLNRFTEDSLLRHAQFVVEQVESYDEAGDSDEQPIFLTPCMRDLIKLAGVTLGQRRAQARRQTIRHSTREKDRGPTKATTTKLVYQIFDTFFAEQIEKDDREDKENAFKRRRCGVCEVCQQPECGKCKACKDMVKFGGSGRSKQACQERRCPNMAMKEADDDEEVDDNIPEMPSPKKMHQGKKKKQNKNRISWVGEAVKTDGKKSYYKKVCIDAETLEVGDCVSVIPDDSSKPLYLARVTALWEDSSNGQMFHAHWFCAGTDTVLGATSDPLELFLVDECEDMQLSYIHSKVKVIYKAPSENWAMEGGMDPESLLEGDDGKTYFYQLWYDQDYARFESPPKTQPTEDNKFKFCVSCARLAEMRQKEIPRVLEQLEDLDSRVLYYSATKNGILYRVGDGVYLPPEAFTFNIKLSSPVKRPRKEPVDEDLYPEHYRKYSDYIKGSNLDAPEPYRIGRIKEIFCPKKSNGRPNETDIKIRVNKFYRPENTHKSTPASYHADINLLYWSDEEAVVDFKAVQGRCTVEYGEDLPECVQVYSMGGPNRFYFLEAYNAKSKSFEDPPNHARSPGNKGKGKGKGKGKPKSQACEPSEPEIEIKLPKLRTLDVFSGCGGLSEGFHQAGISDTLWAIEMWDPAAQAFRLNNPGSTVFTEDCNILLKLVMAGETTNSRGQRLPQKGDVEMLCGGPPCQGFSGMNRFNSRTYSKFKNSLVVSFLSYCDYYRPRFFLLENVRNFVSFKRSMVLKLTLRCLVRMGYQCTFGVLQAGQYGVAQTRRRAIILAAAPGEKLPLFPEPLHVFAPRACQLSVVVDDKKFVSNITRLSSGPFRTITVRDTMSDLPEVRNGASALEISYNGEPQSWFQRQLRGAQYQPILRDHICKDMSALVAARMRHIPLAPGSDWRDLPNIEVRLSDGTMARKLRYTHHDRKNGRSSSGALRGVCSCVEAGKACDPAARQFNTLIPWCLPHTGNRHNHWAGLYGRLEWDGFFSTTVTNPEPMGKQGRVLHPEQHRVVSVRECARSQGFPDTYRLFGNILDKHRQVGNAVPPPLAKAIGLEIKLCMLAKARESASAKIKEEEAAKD

As to `CCc1c(C#N)c(SC(C(N)=O)c2ccccc2)nc(N(C)Cc2nnc[nH]2)c1C#N` (centres unmarked) [Example 341, 2-((6-(((4H-1,2,4-Triazol-3-yl)methyl)(methyl)amino)-3,5-dicyano-4-ethylpyridin-2-yl)thio)-2-phenylacetamide], the “DNMT1 BioChemical (pIC50 category)” value at DNMT1 is listed as “D (Category D: ≥6.5)”. Further, the EC50 in assay [1] was under 316 nM.
For `CCc1c(C#N)c(SCc2ccc3[nH]ccc3c2)nc(N2CCC(N3CCCC3)CC2)c1C#N` [Example 344, 2-(((1H-Indol-5-yl)methyl)thio)-4-ethyl-6-(4-(pyrrolidin-1-yl)piperidin-1-yl)pyridine-3,5-dicarbonitrile], the IC50 on DNMT1 is 316 to 1000 nM. Besides, the EC50 in assay [1] was 1000 to 31600 nM.
As to `CCc1c(C#N)c(SC(C(N)=O)c2ccncc2)nc(N(C)C)c1C#N` (centres unmarked) [Example 27, 2-((3,5-dicyano-6-(dimethylamino)-4-ethylpyridin-2-yl)thio)-2-(pyridin-4-yl)acetamide], the “DNMT1 BioChemical (pIC50 category)” value at DNMT1 is on record as “D (Category D: ≥6.5)”. The EC50 in assay [1] was over 31600 nM.
On the same counts, the results for `CCc1c(C#N)c(SCc2ccc(N(C)S(C)(=O)=O)cc2)nc(N(C)CCN)c1C#N` [Example 484, N-(4-(((6-((2-aminoethyl)(methyl)amino)-3,5-dicyano-4-ethylpyridin-2-yl)thio)methyl)phenyl)-N-methylmethanesulfonamide] are “D (Category D: ≥6.5)” and under 316 nM.
The like results for `CCc1c(C#N)c(S[C@H](C)c2ccc(N(C)S(C)(=O)=O)cc2)nc(N2CCC(N)CC2)c1C#N` (single isomer, unassigned) [Example 681, N-(4-(1-((6-(4-aminopiperidin-1-yl)-3,5-dicyano-4-ethylpyridin-2-yl)thio)ethyl)phenyl)-N-methylmethanesulfonamide] were, in that order, “D (Category D: ≥6.5)” and 1000 to 31600 nM.
For the molecule `CCc1c(C#N)c(SC(C(N)=O)c2ccc(F)cn2)nc(N(C)C)c1C#N` (centres unmarked) [Example 199], the “DNMT1 BioChemical (pIC50 category)” value at DNMT1 is given as “D (Category D: ≥6.5)”. In assay [1], the EC50 was over 31600 nM.
For the molecule `CCc1c(C#N)c(SC(C(N)=O)c2ccccc2)nc(N(C)CCN2CCCC2)c1C#N` (centres unmarked) [Example 511, 2-((3,5-dicyano-4-ethyl-6-(methyl(2-(pyrrolidin-1-yl)ethyl)amino)pyridin-2-yl)thio)-2-phenylacetamide], the “DNMT1 BioChemical (pIC50 category)” value on DNMT1 is listed as “D (Category D: ≥6.5)”. Also, the EC50 in assay [1] is under 316 nM.
Regarding `CCc1c(C#N)c(SCc2ccc(NS(C)(=O)=O)nc2)nc(N2CCCN(C)CC2)c1C#N` [Example 335, N-(5-(((3,5-dicyano-4-ethyl-6-(4-methyl-1,4-diazepan-1-yl)pyridin-2-yl)thio)methyl)pyridin-2-yl)methanesulfonamide], at DNMT1, the IC50 is 316 to 1000 nM. In assay [1], the EC50 was over 31600 nM.
`CCc1c(C#N)c(SC(C(N)=O)c2ccccc2)nc(N(C)CCN2CCNCC2)c1C#N` (centres unmarked) [Example 167, 2-((3,5-Dicyano-4-ethyl-6-(methyl(2-(piperazin-1-yl)ethyl)amino)pyridin-2-yl)thio)-2-phenylacetamide]: on DNMT1, the “DNMT1 BioChemical (pIC50 category)” value is “D (Category D: ≥6.5)”. Moreover, in assay [1], the EC50 was under 316 nM.
For `CCc1c(C#N)c(SC(C(N)=O)c2ccccc2)nc(N2CCC(N3C(=O)CNC3=O)CC2)c1C#N` (centres unmarked) [Example 250, 2-((3,5-Dicyano-6-(4-(2,5-dioxoimidazolidin-1-yl)piperidin-1-yl)-4-ethylpyridin-2-yl)thio)-2-phenylacetamide], the IC50 at DNMT1 is 316 to 1000 nM. The EC50 in assay [1] is 1000 to 31600 nM.
On the same counts, the results for `CCc1c(C#N)c(SC(C(N)=O)c2ccccc2)nc(N2CCC3(CC2)CNC(=O)O3)c1C#N` (centres unmarked) [Example 256, 2-((3,5-Dicyano-4-ethyl6-(2-oxo-1-oxa-3,8-diazaspiro[4.5]decan-8-yl)pyridin-2-yl)thio)-2-phenylacetamide] are 316 to 1000 nM and 1000 to 31600 nM.
`CCc1c(C#N)c(SC(C(N)=O)c2ccccc2)nc(N2CCNC(C)CC2)c1C#N` (centres unmarked) [Example 67, 2-{[3,5-dicyano-4-ethyl-6-(5-methyl-1,4-diazepan-1-yl)pyridin-2-yl]sulfanyl}-2-phenylacetamide]: at DNMT1, the “DNMT1 BioChemical (pIC50 category)” value is reported as “D (Category D: ≥6.5)”. The EC50 in assay [1] is under 316 nM.
The like results for `CCc1c(C#N)c(SC(C(N)=O)c2ccccc2)nc(N2CCC(C)(NCCO)CC2)c1C#N` (centres unmarked) [Example 643, 2-((3,5-dicyano-4-ethyl-6-(4-((2-hydroxyethyl)amino)-4-methylpiperidin-1-yl)pyridin-2-yl)thio)-2-phenylacetamide] were, in that order, “D (Category D: ≥6.5)” and under 316 nM.
Consider `CCc1c(C#N)c(SCc2ccc(N3CCCS3(=O)=O)cc2)nc(N2CCC(NCC(C)(C)C)CC2)c1C#N` [Example 603, 2-((4-(1,1-dioxidoisothiazolidin-2-yl)benzyl)thio)-4-ethyl-6-(4-(neopentylamino)piperidin-1-yl)pyridine-3,5-dicarbonitrile], for which, on DNMT1, the “DNMT1 BioChemical (pIC50 category)” value is on record as “D (Category D: ≥6.5)”. Besides, the EC50 in assay [1] was over 31600 nM.
Consider `CN(CCOC(N)=O)c1nc(SC(C(N)=O)c2ccccc2)c(C#N)c(C2CC2)c1C#N` (centres unmarked) [Example 397, 2-((6-((2-Amino-2-oxo-1-phenylethyl)thio-3,5-dicyano-4-cyclopropylpyridin-2-yl)methyl)amino)ethyl carbamate], for which the IC50 at DNMT1 is 316 to 1000 nM. Besides, the EC50 in assay [1] was 1000 to 31600 nM.
On the same counts, the results for `CCc1c(C#N)c(SC(C(N)=O)c2ccccc2)nc(N2CC[C@@H](O)C2)c1C#N` (stereo partly drawn) [Example 160, 2-((3,5-Dicyano-4-ethyl-6-((R)-3-hydroxypyrrolidin-1-yl)pyridin-2-yl)thio)-2-phenylacetamide] are 1000 to 31600 nM and 1000 to 31600 nM.
